Measurements taken from US4450269A, “Mono-5-substituted-3-chloro-4H-1,2,6-thiadiazin-4-one antifungal agents” (FMC Corporation, priority 1980, dated 1984).
Counter-ions that a name gives are not always drawn. Like-named read-outs stand apart in the source and are kept apart here.

Tests used:
Pyricularia oryzae = test: whole plant or invertebrate; assay type: in vivo; details: for pest or weed control at 150 ppm: Pyricularia oryzae, foliar, 24 h, read-out: Percent Disease Control, curative, rice blast, 150 ppm, 24 hours after inoculation; for Percent Disease Control, curative, rice blast: 150 ppm, 24 hours after inoculation
Phytophthora infestans = assay type: cell-based; details: PI, 48 hours
Venturia inaequalis = test: Spore germination test; assay type: cell-based; details: VI, 48 hours
Protocol: VI = Venturia inaequalis
The test chemical was dissolved or suspended in acetone in an amount such that 0.8 ml of the resulting suspension or solution, mixed with 40 ml water agar produced a water agar solution containing 40, 10, 2.5 and 1 ppm of test chemical. The resulting agar solution, at 50° C., was then divided equally between two sterile petri dishes, each having four separated quadrants, and allowed to solidify. […] quadrants of each dish were flooded with 0.1 ml of a spore suspension in sterile water. Spores of two pathogens, Erysiphe polygoni and Uromyes phaseoli, from infected plant leaves, were brushed on the remaining two quadrants. The tests were then incubated 48 hours, at 24° C.
Readings were then taken and the percentage of germinated spores calculated. From this percentage, a spore germination rating was assigned as follows: […]

Row | Molecule | pest or weed control at 150 ppm (Pyricularia oryzae) [%] | Spore Germination Rating (Phytophthora infestans; 1.0 ppm) | Spore Germination Rating (Phytophthora infestans; 2.5 ppm) | Spore Germination Rating (Phytophthora infestans; 10 ppm) | Spore Germination Rating (Phytophthora infestans; 40 ppm) | Spore Germination Rating (Venturia inaequalis; 1.0 ppm) | Spore Germination Rating (Venturia inaequalis; 2.5 ppm) | Spore Germination Rating (Venturia inaequalis; 10 ppm) | Spore Germination Rating (Venturia inaequalis; 40 ppm) | Percent Disease Control, curative, rice blast (Pyricularia oryzae) [%] | Percent Disease Control, curative, rice blast (Pyricularia oryzae; hydrochloride) [%] | Spore Germination Rating (Phytophthora infestans; 2.5 ppm, hydrochloride) | Spore Germination Rating (Venturia inaequalis; 1.0 ppm, hydrochloride) | Spore Germination Rating (Venturia inaequalis; 2.5 ppm, hydrochloride) | Spore Germination Rating (Venturia inaequalis; 10 ppm, hydrochloride) | Spore Germination Rating (Venturia inaequalis; 40 ppm, hydrochloride)
1 | O=c1c(Cl)nsnc1Oc1ccc([N+](=O)[O-])cc1 [Compound 9, 3-chloro-5-(4-nitrophenoxy)-4H--1,2,6-thiadiazin-4-one] | 90 | 0 (0-10) | 0 (0-10) | 0 (0-10) | 0 (0-10) | 0 (0-10) | 0 (0-10) | 0 (0-10) | 0 (0-10) | – | – | – | – | – | – | –
2 | O=c1c(Cl)nsnc1Oc1ccccc1Cl [Compound 14, 3-chloro-5-(2-chlorophenoxy)-4H--1,2,6-thiadiazin-4-one] | 0 | 0 (0-10) | 0 (0-10) | 0 (0-10) | 0 (0-10) | 0 (0-10) | 0 (0-10) | 0 (0-10) | 0 (0-10) | – | – | – | – | – | – | –
3 | 3-chloro-5-(bromophenoxy)-4H-1,2,6-thiadiazin-4-one [Compound 33] | – | 0 (0-10) | 0 (0-10) | 0 (0-10) | 0 (0-10) | 0 (0-10) | 0 (0-10) | 0 (0-10) | 0 (0-10) | 0 | – | – | – | – | – | –
4 | CC(=O)Nc1ccccc1Oc1nsnc(Cl)c1=O [Compound 43, 3-[(2-acetylamino)-phenoxy]-5-chloro-4H--1,2,6-thiadiazin-4-one] | 0 | 4 (80-100) | 4 (80-100) | 4 (80-100) | 2 (40-60) | 4 (80-100) | 4 (80-100) | 4 (80-100) | 2 (40-60) | – | – | – | – | – | – | –
5 | COc1ccc(Oc2nsnc(Cl)c2=O)cc1 [Compound 5, 3-chloro-5-(4-methoxyphenoxy)4H--1,2,6-thiadiazin-4-one] | 75 | 2 (40-60) | 2 (40-60) | 2 (40-60) | 0 (0-10) | 3 (60-80) | 0 (0-10) | 0 (0-10) | 0 (0-10) | – | – | – | – | – | – | –
6 | O=c1c(Cl)nsnc1Oc1cccc(Cl)c1 [Compound 13, 3-chloro-5-(3-chlorophenoxy)-4H--1,2,6-thiadiazin-4-one] | 0 | 0 (0-10) | 0 (0-10) | 0 (0-10) | 0 (0-10) | 1 (10-40) | 0 (0-10) | 0 (0-10) | 0 (0-10) | – | – | – | – | – | – | –
7 | Cc1cccc(C)c1Oc1nsnc(Cl)c1=O [Compound 24, 3-chloro-5-(2,6-dimethylphenoxy)-4H--1,2,6-thiadiazin-4-one] | 95 | 4 (80-100) | 2 (40-60) | 1 (10-40) | 0 (0-10) | 2 (40-60) | 0 (0-10) | 0 (0-10) | 0 (0-10) | – | – | – | – | – | – | –
8 | O=c1c(Cl)nsnc1Oc1ccccc1 [Compound 2, 3-chloro-5-phenoxy-4H--1,2,6-thiadiazin-4-one] | 0 | 0 (0-10) | 1 (10-40) | 1 (10-40) | 0 (0-10) | 4 (80-100) | 2 (40-60) | 0 (0-10) | 0 (0-10) | – | – | – | – | – | – | –
9 | Cc1cc(Oc2nsnc(Cl)c2=O)cc(C)c1Br [Compound 60, 3-[(4-bromo-3,5-dimethyl)-phenoxy]-5-chloro-4H--1,2,6-thiadiazin-4-one] | 0 | 4 (80-100) | 2 (40-60) | 1 (10-40) | 0 (0-10) | 2 (40-60) | 1 (10-40) | 0 (0-10) | 0 (0-10) | – | – | – | – | – | – | –
10 | Cc1cc(C)cc(Oc2nsnc(Cl)c2=O)c1 [Compound 25, 3-chloro-5-(3,5-dimethylphenoxy)-4H--1,2,6-thiadiazin-4-one] | 0 | 4 (80-100) | 1 (10-40) | 0 (0-10) | 0 (0-10) | 4 (80-100) | 0 (0-10) | 2 (40-60) | 0 (0-10) | – | – | – | – | – | – | –
11 | Nc1ccc(Oc2nsnc(Cl)c2=O)cc1 [Compound 26, 5-(4-aminophenoxy)-3-chloro-4H--1,2,6-thiadiazin-4-one] | – | 4 (80-100) | 4 (80-100) | 4 (80-100) | 2 (40-60) | 4 (80-100) | 4 (80-100) | 4 (80-100) | 1 (10-40) | 0 | – | – | – | – | – | –
12 | O=c1c(Cl)nsnc1Oc1cccc2ccccc12 [Compound 32, 3-chloro-5(1-naphthoxy)-4H-1,2,6-thiadiazin-4-one] | 0 | 3 (60-80) | 1 (10-40) | 0 (0-10) | 0 (0-10) | 3 (60-80) | 0 (0-10) | 0 (0-10) | 0 (0-10) | – | – | – | – | – | – | –
13 | O=C(Nc1ccccc1)Nc1ccc(Oc2nsnc(Cl)c2=O)cc1 [Compound 29, 3-chloro-5-[4-(3-phenylureido)-phenoxy]-4H--1,2,6-thiadiazin-4-one] | 0 | 4 (80-100) | 4 (80-100) | 4 (80-100) | 3 (60-80) | 4 (80-100) | 4 (80-100) | 4 (80-100) | 0 (0-10) | – | – | – | – | – | – | –
14 | O=c1c(Cl)nsnc1Oc1ccccc1Br [Compound 34, 3-chloro-5-(2-bromophenoxy)-4H-1,2,6,-thiadiazin-4-one] | 0 | 4 (80-100) | 1 (10-40) | 0 (0-10) | 0 (0-10) | 0 (0-10) | 0 (0-10) | 0 (0-10) | 0 (0-10) | – | – | – | – | – | – | –
15 | O=c1c(Cl)nsnc1Oc1ccc(Br)cc1 [Compound 15, 3-chloro-5-(4-bromophenoxy)-4H--1,2,6-thiadiazin-4-one] | 95 | 0 (0-10) | 1 (10-40) | 0 (0-10) | 0 (0-10) | 0 (0-10) | 0 (0-10) | 0 (0-10) | 0 (0-10) | – | – | – | – | – | – | –
16 | O=c1c(Cl)nsnc1Oc1c(Cl)c(Cl)c(Cl)c(Cl)c1Cl [Compound 31, 3-chloro-5-(pentachlorophenoxy)-4H--1,2,6-thiadiazine-4-one] | 0 | 4 (80-100) | 3 (60-80) | 2 (40-60) | 2 (40-60) | 0 (0-10) | 0 (0-10) | 0 (0-10) | 0 (0-10) | – | – | – | – | – | – | –
17 | Nc1ccc(Oc2nsnc(Cl)c2=O)cc1 [Compound 27, 5-(4-aminophenoxy)-3-chloro-4H--1,2,6-thiadiazine-4-one hydrochloride] | – | – | – | – | – | – | – | – | – | – | 95 | 3 (60-80) | 0 (0-10) | 0 (0-10) | 0 (0-10) | 0 (0-10)
18 | Cc1ccc(Oc2nsnc(Cl)c2=O)c(C)c1 [Compound 23, 3-chloro-5-(2,4-dimethylphenoxy)-4H--1,2,6-thiadiazin-4-one] | 0 | 4 (80-100) | 2 (40-60) | 2 (40-60) | 0 (0-10) | 4 (80-100) | 3 (60-80) | 1 (10-40) | 0 (0-10) | – | – | – | – | – | – | –
19 | Cc1ccc(Oc2nsnc(Cl)c2=O)c(Br)c1 [Compound 57, 3-[(2-bromo-4-methyl)-phenoxy]-5-chloro-4H--1,2,6-thiadiazin-4-one] | 0 | 4 (80-100) | 1 (10-40) | 0 (0-10) | 0 (0-10) | 2 (40-60) | 0 (0-10) | 0 (0-10) | 0 (0-10) | – | – | – | – | – | – | –
20 | CC(=O)Nc1ccc(Oc2nsnc(Cl)c2=O)cc1 [Compound 8, 5-(4-acetylaminophenoxy)-3-chloro-4H--1,2,6-thiadiazin-4-one] | 0 | 4 (80-100) | 4 (80-100) | 0 (0-10) | 0 (0-10) | 4 (80-100) | 3 (60-80) | 2 (40-60) | 0 (0-10) | – | – | – | – | – | – | –
21 | O=C(O)c1ccc(Oc2nsnc(Cl)c2=O)cc1 [Compound 50, 3-(4-carboxyphenoxy)-5-chloro-4H--1,2,6-thiadiazin-4-one] | 90 | 4 (80-100) | 2 (40-60) | 0 (0-10) | 0 (0-10) | 4 (80-100) | 4 (80-100) | 4 (80-100) | 0 (0-10) | – | – | – | – | – | – | –
